The values that follow come from US8741579B2, “Compounds and methods for the modulation of beta-1 integrin function to mediate tissue repair” (priority 2007, dated 2014).

The test system of assay [1] is adult human lung fibroblasts (CCD-8Lu) overlayered with NCI-H441 cells. Nature of the assay: Caspase 3/7 activity (Caspase-Glo 3/7) in human lung co-culture under cyclic stretch. The conditions noted are these: cyclic stretch 6 hours; JB1a 1 μg/ml; ZVAD-fmk 10 or 20 μM. In kind it is cell-based. The procedure:
(§1) Adult human lung fibroblasts (CCD-8Lu) were seeded onto collagen I coated BioFlex 6 well plates at 0.5×10^6/well. The following day, NCI-H441 were seeded on top of the fibroblasts at the same density. […] Cells were starved with media containing 0.1% FCS. The plates were subjected to stretching at 0-5%, 0-10% or 2-10% sinusoidal stretch at 1 Hz for 6 hours. Control plates on plastic or bioflex plates without stretch were also included. PPE was added at 0.06 or 0.3 U/ml alone or in combination with JB1a (1 μg/ml) and ZVAD-fmk at 10 or 20 μM. At the end of the 6 hour period, the media was aspirated and caspase 3 activity assayed using Caspase-Glo™ 3/7 (Promega) according to the manufacturers' instructions. Separate experiments were performed at up to 6 hours of stretching where the cells were fixed with 4% paraformaldehyde and stained using Alexa-fluor phalloidin and TO-PRO3 (Molecular Probes). Images were acquired using Zeiss Axioskope using a x63 water achroplan objective and analysed using LSM 5 Image software.

Assay [2] has the same test system. Description: F-actin aggregates (phalloidin staining) in human lung co-culture under stretch. In kind it is cell-based. Particulars: stretch up to 6 hours; JB1a 1 μg/ml; ZVAD-fmk. The procedure: as §1
Assay [3] addresses human beta 1 integrin (Integrin beta-1 precursor, Fibronectin receptor subunit beta, Integrin VLA-4 subunit beta, CD29 antigen) (human) (UniProt P05556). Description: cell-based or functional assay.
Sequence of UniProt P05556 (P05556 21-798 T112H/S215T): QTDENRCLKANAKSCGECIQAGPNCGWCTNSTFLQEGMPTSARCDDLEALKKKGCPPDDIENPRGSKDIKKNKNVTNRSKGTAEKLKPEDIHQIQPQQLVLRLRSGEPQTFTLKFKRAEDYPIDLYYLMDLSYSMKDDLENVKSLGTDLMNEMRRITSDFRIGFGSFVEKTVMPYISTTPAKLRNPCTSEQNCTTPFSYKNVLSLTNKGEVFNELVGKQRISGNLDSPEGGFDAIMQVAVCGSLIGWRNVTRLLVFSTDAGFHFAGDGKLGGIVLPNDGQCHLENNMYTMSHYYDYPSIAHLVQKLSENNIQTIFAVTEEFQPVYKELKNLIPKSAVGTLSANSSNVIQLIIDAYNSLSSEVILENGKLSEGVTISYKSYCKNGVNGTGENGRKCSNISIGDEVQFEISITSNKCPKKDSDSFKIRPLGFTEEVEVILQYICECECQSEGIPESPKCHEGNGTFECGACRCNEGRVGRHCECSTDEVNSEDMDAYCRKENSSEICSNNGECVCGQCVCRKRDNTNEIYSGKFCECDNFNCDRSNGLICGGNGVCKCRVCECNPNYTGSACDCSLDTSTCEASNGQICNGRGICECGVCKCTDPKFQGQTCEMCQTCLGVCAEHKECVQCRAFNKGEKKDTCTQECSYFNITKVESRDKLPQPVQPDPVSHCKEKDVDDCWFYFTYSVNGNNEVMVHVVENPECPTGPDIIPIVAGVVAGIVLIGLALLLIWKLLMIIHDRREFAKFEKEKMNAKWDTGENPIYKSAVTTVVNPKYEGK

Where a SMILES comes first, the peptide text is derived from it. The star is where a group is joined. Cbz = O=C(OCc1ccccc1)*; CH2F = FC*

As to `COC(=O)C[C@H](NC(=O)[C@H](C)NC(=O)[C@@H](NC(=O)OCc1ccccc1)C(C)C)C(=O)CF` [ZVAD-fmk] (Cbz-Val-Ala-Asp(OMe)-CH2F), the “elastase-induced caspase 3 and 7 activation” value in assay [1] was “inhibited elastase-induced caspase activation”. The “elastase-induced increase in F-actin aggregates” value in assay [2] was “inhibited”.

The compound “JB1a monoclonal antibody (JB1A mouse anti-CD29 (Integrin beta-1 subunit) IgG monoclonal antibody, unconjugated, clone JB1a, Millipore, Catalogue number MAB-1965)” registered an IL-1beta-stimulated IL-8 secretion by primary human chondrocytes, reduction in assay [3] of 50%.
